Measured values taken from article PMC7157763, “Synergy between Cell Surface Glycosidases and Glycan-Binding Proteins Dictates the Utilization of Specific Beta(1,3)-Glucans by Human Gut Bacteroides” (mBio, 2020).

How the values were obtained:
[1] = target: T1, BuGH158 (Bacteroides uniformis, UniProt A0ABC9NDZ5); experiment: 1H-NMR of hydrolysis (anomer stereochemistry); format: biochemical; settings: 50 mM sodium phosphate pH 7.0 in D2O; 20 μM enzyme, 10 mM substrate; retaining
T1 construct: gene BACUNI_01485; signal peptide and lipidation Cys excluded; N-terminal His6 tag (pMCSG53); E. coli BL21(DE3)
T1 sequence (A0ABC9NDZ5 19-429 limits assumed): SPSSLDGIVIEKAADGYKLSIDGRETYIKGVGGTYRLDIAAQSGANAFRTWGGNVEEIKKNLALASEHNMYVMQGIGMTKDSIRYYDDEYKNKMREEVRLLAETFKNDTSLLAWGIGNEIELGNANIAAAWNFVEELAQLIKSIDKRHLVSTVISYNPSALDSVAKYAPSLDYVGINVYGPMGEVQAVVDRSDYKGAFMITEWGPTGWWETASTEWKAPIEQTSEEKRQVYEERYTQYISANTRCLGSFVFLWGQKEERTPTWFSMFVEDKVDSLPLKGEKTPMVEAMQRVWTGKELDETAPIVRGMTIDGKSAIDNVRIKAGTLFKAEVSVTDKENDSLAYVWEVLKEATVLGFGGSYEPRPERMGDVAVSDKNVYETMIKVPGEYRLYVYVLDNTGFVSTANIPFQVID

[2] = target: T2, BuSGBP-B (Bacteroides uniformis, UniProt A0ABC9NE57); experiment: isothermal titration calorimetry; format: binding; settings: 25 °C; single-site model
T2 construct: gene BACUNI_01487; signal peptide and lipidation Cys excluded; N-terminal His6 or His6-GST tag (pMCSG53 or pMCSG-GST); E. coli BL21(DE3)
T2 sequence (A0ABC9NE57 22-457): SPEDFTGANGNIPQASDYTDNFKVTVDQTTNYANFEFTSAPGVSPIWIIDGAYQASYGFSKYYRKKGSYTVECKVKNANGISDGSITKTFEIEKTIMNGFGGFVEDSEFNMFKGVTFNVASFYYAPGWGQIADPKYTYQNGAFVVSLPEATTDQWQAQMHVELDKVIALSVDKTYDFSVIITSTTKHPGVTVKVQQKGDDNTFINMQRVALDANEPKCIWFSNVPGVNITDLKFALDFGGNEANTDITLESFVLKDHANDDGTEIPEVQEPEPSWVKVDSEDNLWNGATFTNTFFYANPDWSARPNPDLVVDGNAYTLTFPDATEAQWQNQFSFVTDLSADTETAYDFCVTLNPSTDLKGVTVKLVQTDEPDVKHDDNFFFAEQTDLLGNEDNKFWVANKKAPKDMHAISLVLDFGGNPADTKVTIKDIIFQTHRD

[3] = target: T3, BuGH3 (Bacteroides uniformis, UniProt A0ABC9NEJ2); experiment: continuous glucose release assay (hexokinase kit); format: biochemical; settings: oligosaccharide hydrolysis, exo-acting
T3 construct: gene BACUNI_01484; signal peptide and lipidation Cys excluded; N-terminal His6 tag (pET28a); E. coli BL21(DE3)
T3 sequence (A0ABC9NEJ2 20-750): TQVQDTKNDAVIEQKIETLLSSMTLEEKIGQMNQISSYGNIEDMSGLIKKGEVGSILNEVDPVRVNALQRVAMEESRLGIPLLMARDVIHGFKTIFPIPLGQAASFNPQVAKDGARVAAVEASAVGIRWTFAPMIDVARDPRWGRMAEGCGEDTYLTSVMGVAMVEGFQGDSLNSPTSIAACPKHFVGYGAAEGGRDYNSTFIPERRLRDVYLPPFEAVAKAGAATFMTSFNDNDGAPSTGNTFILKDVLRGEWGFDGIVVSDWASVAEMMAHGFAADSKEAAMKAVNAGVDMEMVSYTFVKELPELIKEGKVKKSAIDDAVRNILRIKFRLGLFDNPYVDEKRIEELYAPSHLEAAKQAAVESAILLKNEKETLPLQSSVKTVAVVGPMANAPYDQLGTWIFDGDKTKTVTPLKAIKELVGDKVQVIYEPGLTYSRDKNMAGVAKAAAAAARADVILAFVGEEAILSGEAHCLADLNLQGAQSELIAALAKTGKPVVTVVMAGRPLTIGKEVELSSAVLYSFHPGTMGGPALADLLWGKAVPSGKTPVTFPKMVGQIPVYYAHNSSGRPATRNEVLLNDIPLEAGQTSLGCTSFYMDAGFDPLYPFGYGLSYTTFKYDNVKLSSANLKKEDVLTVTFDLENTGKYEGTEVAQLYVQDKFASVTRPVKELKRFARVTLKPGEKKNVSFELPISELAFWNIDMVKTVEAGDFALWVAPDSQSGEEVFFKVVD

[4] = target: T3, BuGH3; experiment: continuous glucose release assay (hexokinase kit); format: biochemical; settings: oligosaccharide hydrolysis, exo-acting; remark: listed apart in the source

| Structure (SMILES) | 1H-NMR of hydrolysis (anomer stereochemistry) [1] | Ka [2] | Km [3] | kcat/Km [4] |
| --- | --- | --- | --- | --- |
| O=[N+]([O-])c1ccc(O[C@@H]2O[C@H](CO)[C@@H](O)[C@H](O[C@@H]3O[C@H](CO)[C@@H](O)[C@H](O)[C@H]3O)[C@H]2O)c(Cl)c1 [G3G-CNP, 2-chloro-4-nitrophenyl laminaribioside] | NMR analysis of the hydrolysis of 2-chloro-4-nitrophenyl laminaribioside (G3G-CNP) | – | – | – |
| OC[C@H]1O[C@@H](O[C@@H]2[C@@H](O)[C@H](O[C@@H]3[C@@H](O)[C@H](O[C@H]4[C@H](O)[C@@H](CO)OC(O)[C@@H]4O)O[C@H](CO)[C@H]3O)O[C@H](CO)[C@H]2O)[C@H](O)[C@@H](O)[C@@H]1O (stereo partly shown) [G3G3G3G, laminaritetraose] | – | affinity increased with degree of polymerization | after which Km values leveled off | – |
| OC[C@H]1O[C@@H](OC[C@H]2OC(O)[C@H](O)[C@@H](O)[C@@H]2O)[C@H](O)[C@@H](O)[C@@H]1O (stereo partly shown) [G6G, gentiobiose] | – | – | – | kcat/Km value for laminaribiose (G3G) over cellobiose (G4G) and gentiobiose (G6G) |
| OC[C@H]1O[C@@H](O[C@@H]2[C@@H](O)[C@H](O[C@H]3[C@H](O)[C@@H](CO)OC(O)[C@@H]3O)O[C@H](CO)[C@H]2O)[C@H](O)[C@@H](O)[C@@H]1O (stereo partly shown) [G3G3G, laminaritriose] | – | The smallest laminari-oligosaccharide bound by BuSGBP-B was the trisaccharide (G3G3G) | Km values decreased between the di- and trisaccharide | – |
| OC[C@H]1O[C@@H](O[C@H]2[C@H](O)[C@@H](CO)OC(O)[C@@H]2O)[C@H](O)[C@@H](O)[C@@H]1O (stereo partly shown) [G3G, laminaribiose] | – | – | Km values decreased between the di- and trisaccharide | – |
| OC[C@H]1O[C@@H](O[C@H]2[C@H](O)[C@@H](O)C(O)O[C@@H]2CO)[C@H](O)[C@@H](O)[C@@H]1O (stereo partly shown) [G4G, cellobiose] | – | – | – | kcat/Km value for laminaribiose (G3G) over cellobiose (G4G) and gentiobiose (G6G) |
| OC[C@H]1O[C@@H](O[C@@H]2[C@@H](O)[C@H](O[C@@H]3[C@@H](O)[C@H](O[C@@H]4[C@@H](O)[C@H](O[C@H]5[C@H](O)[C@@H](CO)OC(O)[C@@H]5O)O[C@H](CO)[C@H]4O)O[C@H](CO)[C@H]3O)O[C@H](CO)[C@H]2O)[C@H](O)[C@@H](O)[C@@H]1O (stereo partly shown) [G3G3G3G3G, laminaripentaose] | – | affinity increased with degree of polymerization | after which Km values leveled off | – |
